According to the NIST ThermoML archive (doi:10.1016/j.jct.2007.06.014):
Numbers after ± are expanded uncertainties.

Conditions: Liquid, Bellows volumetry

CCCC [butane]
mass density [kg/m3]
Conditions	380 K	400 K	420 K	440 K
3000 kPa	463.27 ± 0.83	–	–	–
5000 kPa	474.65 ± 0.85	437.19 ± 0.79	–	–
10000 kPa	494.93 ± 0.89	466.97 ± 0.84	436.16 ± 0.79	401.28 ± 0.72
20000 kPa	521.9 ± 0.94	500.93 ± 0.9	479.15 ± 0.86	457.43 ± 0.82
30000 kPa	–	522.83 ± 0.94	504.89 ± 0.91	487.23 ± 0.88
40000 kPa	555.85 ± 1	539.73 ± 0.97	523.9 ± 0.94	508.57 ± 0.92
50000 kPa	–	553.54 ± 1	539.08 ± 0.97	525.26 ± 0.95
60000 kPa	579.32 ± 1	565.44 ± 1	551.8 ± 0.99	539.13 ± 0.97
70000 kPa	–	575.77 ± 1	563.07 ± 1	551.03 ± 0.99
80000 kPa	597.57 ± 1.1	585.08 ± 1.1	572.94 ± 1	561.56 ± 1
90000 kPa	–	593.33 ± 1.1	581.86 ± 1.1	571.14 ± 1
100000 kPa	612.79 ± 1.1	601.18 ± 1.1	589.89 ± 1.1	579.66 ± 1
120000 kPa	625.93 ± 1.1	614.9 ± 1.1	604.27 ± 1.1	594.85 ± 1.1
140000 kPa	637.29 ± 1.1	627.05 ± 1.1	617.11 ± 1.1	608.04 ± 1.1
160000 kPa	647.82 ± 1.2	637.77 ± 1.1	628.25 ± 1.1	619.73 ± 1.1
180000 kPa	657.28 ± 1.2	647.6 ± 1.2	638.65 ± 1.1	630.34 ± 1.1
200000 kPa	665.98 ± 1.2	656.49 ± 1.2	647.73 ± 1.2	639.98 ± 1.1
